Data as given in ChEMBL document CHEMBL1131629, “4-Benzylamino-1-chloro-6-substituted phthalazines: synthesis and inhibitory activity toward phosphodiesterase 5” (J Med Chem, 1998).

organism: Sus scrofa; assay: Vasorelaxation effect in porcine coronary arteries precontracted with PGF2-alpha; type: functional

| SMILES | EC50 |
| --- | --- |
| COc1ccc(CNc2nnc(Cl)c3ccc(C#N)cc23)cc1Cl | 150 nM |
| O=C(O)C1CCN(c2nc(NCc3ccc4c(c3)OCO4)c3cc(Cl)ccc3n2)CC1 | 980 nM |
| COc1ccc(CNc2nnc(Cl)c3ccc([N+](=O)[O-])cc23)cc1Cl | 160 nM |
